Measurements taken from patent US9951314B2, “Differentiation of human embryonic stem cells” (Janssen Biotech, Inc., priority 2010, dated 2018).

Key:
[1] = test system: human embryonic stem cell line H1; test: Differentiation of H1 cells to definitive endoderm in MCDB-131 with added glucose; FACS, real-time PCR, ViaCount at day 4 (Example 2); type: cell-based
Description: Cells of the human embryonic stem cell line H1 at passage 41 (p41) were lifted by TrypLE (Catalog #12604-013, Invitrogen, CA) and seeded as single cells at a density of 100,000 cells/cm^2 on MATRIGEL® coated dishes (1:30 dilution) in MEF-CM (mouse embryonic fibroblast conditioned media) supplemented with 20 ng/ml of FGF2 (Catalog #100-18B, PeproTech, NJ) and 10 μM of Y-27632 (a Rho Kinase Inhibitor, Catalog #Y0503, Sigma, MO). […] The cultures were differentiated into cells expressing markers characteristic of the definitive endoderm lineage 72 hrs post as follows: • a. […] MCDB-131 medium supplemented with 2% BSA, sodium bicarbonate, GlutaMax™, 100 ng/ml activin A, and either 0, 5, 10, 15, 20, or 25 mM of glucose for an additional three days.
However, these increases in cell number and CXCR4 were offset by a reduction in total cell viability (FIG. 2B).
These clustered cells were subsequently less evenly dispersed on the culture surface than populations of cells cultured in the basal level of glucose.

[2] = test system: human embryonic stem cell line H1; test: Differentiation of H1 cells to definitive endoderm in DMEM with low or high glucose; flow cytometry and qRT-PCR (Example 2); type: cell-based; conditions: for cells positive for CXCR4: flow cytometry
Description: Similar glucose related effects on differentiation were also observed in cultures differentiated with DMEM containing either 5.5 mM (low) or 25 mM (high) glucose concentration (Cat #s 10567-014 and 21063-029, Invitrogen, CA). As described above, for controls, cells were seeded as single cells, cultured 3 days in MEF conditioned media and differentiated in MCDB-131 with 5.5 mM or 25 mM glucose supplemented media, or in DMEM high or low glucose media supplemented with 2% fatty acid free BSA, 100 ng/ml activin A, and 20 ng/ml WNT-3a on the first day, and 2% fatty acid free BSA and 100 ng/ml activin A for the next three days with daily media change. Similar to results with MCDB-131 media, where elevated glucose inhibits definitive endoderm formation as compared to low glucose media treated cells, we observed that a high glucose concentration in DMEM reduced hES cell differentiation. By flow cytometry, following differentiation to definitive endoderm, 88.6% of cells were positive for CXCR4 in media containing 5.5 mM glucose versus 80% CXCR4 positive cells in media containing 25 mM glucose. Additionally, markers of differentiation to definitive endoderm as measured by qRT-PCR (SOX17) were decreased while markers of undifferentiated cells (OCT4) or alternative differentiation fates (CDX2) were increased (FIG. 5) in cells fed media containing high glucose versus those fed low glucose media. This effect was due at least in part to the pH of the media as we noted that over the four day differentiation, media pH dropped after 48 hours of differentiation day. Furthermore, the higher the starting and ending pH of culture media (8.1>pH>7.6) (FIG. 6) during definitive endoderm formation, the more complete the conversion to definitive endoderm.

[3] = test system: human embryonic stem (hES) cell line H1; conditions: MCDB-131 with 3.7 g/l versus 1 g/l bicarbonate
Description: Cells of the human embryonic stem (hES) cell line H1 at passage 46 (p46) were seeded as cell colonies to [sequence] (1:30 dilution) coated dishes at a 1 to 3 passage ratio by lifting cells with Dispase (Catalog #17105-041, Invitrogen, CA) and plating the cells in MEF-CM with 20 ng/ml of FGF2. The media was changed daily with fresh MEF-CM with 20 ng/ml of FGF2, until initiation of differentiation into definitive endoderm (DE) as follows: • a. MCDB-131 (Catalog #10372-019, Invitrogen, CA) medium supplemented with 2% fatty acid-free BSA (Catalog #68700, Proliant, IA), 1× GlutaMax™ (Catalog #35050-079, Invitrogen, Ca) and 100 ng/ml activin A (R&D Systems, MN) plus 20 ng/ml WNT-3a (Catalog #1324-WN-002, R&D Systems, MN) for one day, followed by treatment with MCDB-131 supplemented with 2% BSA, GlutaMax™, and 100 ng/ml activin A each day for an additional three days; or • b.
At day 4, samples were collected for FACS and gene expression analysis using real-time PCR, and counted by ViaCount® (Guava®, Millipore, Billerica, Mass.).

[4] = increased glucose concentration, clustered cells, real-time PCR
[5] = high glucose versus low glucose media

SMILES | CXCR4 expression ([1]; additional 5 mM glucose (10.5 mM final), MCDB-131, day 4) | cell number ([1]; additional 10 mM glucose (15.5 mM final), MCDB-131, day 4) | SOX17 positive cells ([1]; basal level of glucose (5.5 mM), MCDB-131) | CD9 expression [1, 4] | MNX1 (HLXB9) gene expression [1, 4] | OCT4 expression [1, 4] | SOX7 expression [1, 4] | total cell viability ([1]; supplemented glucose (10.5 to 15.5 mM final), MCDB-131, day 4) | CDX2 expression (qRT-PCR) [2, 5] | OCT4 expression (qRT-PCR) [2, 5] | SOX17 expression (qRT-PCR) [2, 5] | cells positive for CXCR4 ([2]; media containing 5.5 mM glucose) | cells positive for CXCR4 ([2]; media containing 25 mM glucose) | CD9 expression levels [3] | CXCR4 expression [3]
O=C[C@H](O)[C@@H](O)[C@H](O)[C@H](O)CO [glucose] | modest increase | modest increase | almost every cell in the culture was SOX17 positive | slight increase | decrease | slight increase | slight increase | reduction | increased | increased | decreased | 88.6% | 80% |  | 
O=C([O-])O.[Na+] [Sodium Bicarbonate] |  |  |  |  |  |  |  |  |  |  |  |  |  | lower | significantly higher
